Among the data in patent US7605272B2, “IGF-1R inhibitor” (Kyowa Hakko Kirin Co., Ltd., priority 2005, dated 2009) are inhibition values, retold here.

SMILES strings stand for the structures. Structures can show the parent of a compound that is named as a salt.

The subject of test [1] is NCI-H929. Kind of test: Cytostatic activity on human multiple myeloma cell line NCI-H929 (WST-1). In kind it is cell-based. Conditions: Homo sapiens, NCI-H929, 72 h, 10 μmol/L, 72 hours; read-out: cytostatic rate (%) H929 (10 μmol/L). The procedure, abridged:
(§1)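 Cytostatic rate is 100 minus % growth relative to DMSO-only wells (100%) and blank wells (0%), read by WST-1 absorbance at 450/690 nm after 2 h. Compound at 1 or 10 μmol/L final was applied for 72 h at 37 °C to cells seeded 24 h earlier.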

Test [2] deals with KMS-11. Kind of test: Cytostatic activity on human multiple myeloma cell line KMS-11 (WST-1). In kind it is cell-based. Conditions: Homo sapiens, KMS-11, 72 h, 10 μmol/L, 72 hours; read-out: cytostatic rate (%) KMS-11 (10 μmol/L). The procedure, abridged: as §1
In general terms: Tetrazolium dyes change colour on reduction, which living cells bring about.

The target in test [3] is T1, IGF-1R (Homo sapiens, UniProt P08069).
T1 construct: purchased Upstate Co. 14-465
T1 sequence (P08069 959-1367 limits assumed): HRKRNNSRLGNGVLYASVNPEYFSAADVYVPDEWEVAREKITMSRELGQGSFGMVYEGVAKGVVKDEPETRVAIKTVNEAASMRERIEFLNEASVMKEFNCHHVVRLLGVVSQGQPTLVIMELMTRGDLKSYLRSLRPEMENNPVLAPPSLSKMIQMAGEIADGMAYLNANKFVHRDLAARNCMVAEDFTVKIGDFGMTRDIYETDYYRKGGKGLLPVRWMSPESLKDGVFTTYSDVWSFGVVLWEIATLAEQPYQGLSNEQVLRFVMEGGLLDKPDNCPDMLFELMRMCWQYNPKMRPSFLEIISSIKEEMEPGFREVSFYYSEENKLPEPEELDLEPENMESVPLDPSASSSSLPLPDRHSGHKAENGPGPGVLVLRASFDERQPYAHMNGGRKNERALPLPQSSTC
Kind of test: IGF-1R inhibitory activity (kinase reaction, time-resolved fluoroimmunoassay). The test is classed as biochemical. As to conditions: test compound 10 μmol/L. The procedure, abridged: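 Compounds were tested at a single 10 μmol/L concentration. Each was incubated with recombinant IGF-1R (200 μg/L), 10 mmol/L ATP, MgCl2/MnCl2 and Na3VO4 (pH 7.5) on immobilized poly(Glu-Tyr) peptide for 30 min at 24° C. Eu-anti-phosphotyrosine time-resolved fluorescence (340/615 nm) gave relative activity against no-compound and no-enzyme wells, reported as % inhibition.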

Where [4] appears, read: IGF-1R active recombinant enzyme.

In the case of `COc1cscc1C(=O)Nc1ccccc1/C=C/c1n[nH]c2ccccc12` [Compound 53, (E)-N-{2-[2-(1H-indazol-3-yl)vinyl]phenyl}-4-methoxythiophene-3-carboxamide], the inhibition at 10 µM came to 114% in test [1], 126% in test [2] and 98.9% in test [3] (setting [4]).

With `O=C(Nc1ccccc1/C=C/c1n[nH]c2ccccc12)c1sccc1Cl` [Compound 54, (E)-3-chloro-N-{2-[2-(1H-indazol-3-yl)vinyl]phenyl}thiophene-2-carboxamide], the inhibition at 10 µM in test [1] amounted to 118%; in test [2] it was 126%; in test [3] (setting [4]) it was 96.7%.

As for `Cn1c(C(=O)Nc2ccccc2/C=C/c2n[nH]c3ccccc23)cc2ccccc21` [Compound 55, (E)-N-{2-[2-(1H-indazol-3-yl)vinyl]phenyl}-1-methyl-1H-indole-2-carboxamide], the inhibition at 10 µM in test [1] turned out to be 115%; in test [2], 132%; in test [3] (setting [4]), 98.9%.

As for `Nc1ccc(C(=O)Nc2ccccc2/C=C/c2n[nH]c3ccccc23)s1` [Compound 56, (E)-5-amino-N-{2-[2-(1H-indazol-3-yl)vinyl]phenyl}thiophene-2-carboxamide], the inhibition at 10 µM in test [1] is 116%; in test [2], 134%; in test [3] (setting [4]), 99.3%.

As for `O=C(Nc1ccccc1/C=C/c1n[nH]c2ccccc12)c1cc2sccc2s1` [Compound 57, (E)-N-{2-[2-(1H-indazol-3-yl)vinyl]phenyl}thieno[3,2-b]thiophene-2-carboxamide], the inhibition at 10 µM was found to be 117% in test [1], 141% in test [2] and 98.3% in test [3] (setting [4]).

For the molecule `Cc1c(C(=O)Nc2ccccc2/C=C/c2n[nH]c3ccccc23)sc2ccc(Cl)cc12` [Compound 58, (E)-5-chloro-N-{2-[2-(1H-indazol-3-yl)vinyl]phenyl}-3-methylbenzo[b]thiophene-2-carboxamide], the inhibition at 10 µM was 69.8% in test [1], 119% in test [2] and 86% in test [3] (setting [4]).

With `Cc1cc(C(=O)Nc2ccccc2/C=C/c2n[nH]c3ccccc23)c(C(F)(F)F)o1` [Compound 59, (E)-N-{2-[2-(1H-indazol-3-yl)vinyl]phenyl}-5-methyl-2-trifluoromethylfuran-3-carboxamide], the values for the inhibition at 10 µM in test [1], in test [2] and in test [3] (setting [4]) were 110%, 106% and 86.3%, respectively.

In the case of `O=S(=O)(Nc1ccccc1/C=C/c1n[nH]c2ccccc12)c1cccs1` [Compound 60, (E)-N-{2-[2-(1H-indazol-3-yl)vinyl]phenyl}thiophene-2-sulfonamide], the inhibition at 10 µM in test [1] turned out to be 63.9%; in test [2], 103%; in test [3] (setting [4]) it was 77.4%.

In the case of `O=C(Nc1ccccc1/C=C/c1n[nH]c2ccccc12)c1ccc([N+](=O)[O-])o1` [Compound 63, (E)-N-{2-[2-(1H-indazol-3-yl)vinyl]phenyl}-5-nitrofuran-2-carboxamide], the values for the inhibition at 10 µM in test [1], in test [2] and in test [3] (setting [4]) were 109%, 125% and 99.2%, respectively.

For `O=C(Nc1ccccc1/C=C/c1n[nH]c2ccccc12)c1cccc([N+](=O)[O-])c1` [Compound 64, (E)-N-{2-[2-(1H-indazol-3-yl)vinyl]phenyl}-3-nitrobenzamide], the inhibition at 10 µM in test [1] was 108%; in test [2], 124%; in test [3] (setting [4]) it was 97%.

Regarding `O=C(Nc1ccccc1/C=C/c1n[nH]c2ccccc12)c1ccc([N+](=O)[O-])cc1` [Compound 65, (E)-N-{2-[2-(1H-indazol-3-yl)vinyl]phenyl}-4-nitrobenzamide], the inhibition at 10 µM in test [1] was 109%; in test [2], 120%; in test [3] (setting [4]), 97.9%.

As to `Cc1cc([N+](=O)[O-])sc1C(=O)Nc1ccccc1/C=C/c1n[nH]c2ccccc12` [Compound 66, (E)-N-{2-[2-(1H-indazol-3-yl)vinyl]phenyl}-3-methyl-5-nitrothiophene-2-carboxamide], the results for the inhibition at 10 µM in test [1], in test [2] and in test [3] (setting [4]) were 111%, 114% and 93.6%, respectively.

On to `Cc1cc(N)sc1C(=O)Nc1ccccc1/C=C/c1n[nH]c2ccccc12` [Compound 67, (E)-5-amino-N-{2-[2-(1H-indazol-3-yl)vinyl]phenyl}-3-methylthiophene-2-carboxamide], for which the inhibition at 10 µM in test [1] came to 119%; in test [2], 100%; in test [3] (setting [4]), 95.6%.

In the case of `CC(=O)Nc1ccc(C(=O)Nc2ccccc2/C=C/c2n[nH]c3ccccc23)s1` [Compound 68, (E)-5-acetylamino-N-{2-[2-(1H-indazol-3-yl)vinyl]phenyl}thiophene-2-carboxamide], the figures for the inhibition at 10 µM in test [1], in test [2] and in test [3] (setting [4]) were 114%, 112% and 97.4%, respectively.

For `Nc1cccc(C(=O)Nc2ccccc2/C=C/c2n[nH]c3ccccc23)c1` [Compound 69, (E)-3-amino-N-{2-[2-(1H-indazol-3-yl)vinyl]phenyl}benzamide], the figures for the inhibition at 10 µM in test [1], in test [2] and in test [3] (setting [4]) were 116%, 114% and 101%, respectively.

Turning to `Nc1ccc(C(=O)Nc2ccccc2/C=C/c2n[nH]c3ccccc23)cc1` [Compound 70, (E)-4-amino-N-{2-[2-(1H-indazol-3-yl)vinyl]phenyl}benzamide], the inhibition at 10 µM amounted to 115% in test [1], 113% in test [2] and 101% in test [3] (setting [4]).

In the case of `Cc1nnsc1C(=O)Nc1ccccc1/C=C/c1n[nH]c2ccccc12` [Compound 71, (E)-N-{2-[2-(1H-indazol-3-yl)vinyl]phenyl}-4-methyl-[1,2,3]thiadiazole-5-carboxamide], the inhibition at 10 µM in test [1] was determined as 115%; in test [2] it was 114%; in test [3] (setting [4]), 99.4%.

For `Cn1cccc1CC(=O)Nc1ccccc1/C=C/c1n[nH]c2ccccc12` [Compound 73, (E)-N-{2-[2-(1H-indazol-3-yl)vinyl]phenyl}-2-(1-methyl-1H-pyrrole-2-yl)acetamide], the inhibition at 10 µM was 80% in test [1], 90.4% in test [2] and 88% in test [3] (setting [4]).

For `Cn1cc(N)cc1C(=O)Nc1ccccc1/C=C/c1n[nH]c2ccccc12` [Compound 76, (E)-4-amino-N-{2-[2-(1H-indazol-3-yl)vinyl]phenyl}-1-methyl-1H-pyrrole-2-carboxamide trifluoroacetate], the inhibition at 10 µM in test [1] was found to be 109%; in test [2], 126%; in test [3] (setting [4]), 99.2%.

For the molecule `O=C(Nc1ccccc1/C=C/c1n[nH]c2ccccc12)c1ccc(O)cc1` [Compound 77, (E)-4-hydroxy-N-{2-[2-(1H-indazol-3-yl)vinyl]phenyl}benzamide], the inhibition at 10 µM was found to be 111% in test [1], 126% in test [2] and 101% in test [3] (setting [4]).

`COCCOc1ccc(C(=O)Nc2ccccc2/C=C/c2n[nH]c3ccccc23)cc1` [Compound 78, (E)-N-{2-[2-(1H-indazol-3-yl)vinyl]phenyl}-4-(2-methoxyethoxy)benzamide]: the figures for the inhibition at 10 µM in test [1], in test [2] and in test [3] (setting [4]) were 114%, 107% and 100%, respectively.

On to `N#Cc1ccc(C(=O)Nc2ccccc2/C=C/c2n[nH]c3ccccc23)cc1` [Compound 83, (E)-4-cyano-N-{2-[2-(1H-indazol-3-yl)vinyl]phenyl}benzamide], for which the inhibition at 10 µM in test [1] is 114%; in test [2], 107%; in test [3], 96.3%.

`Nc1ccc(C(=O)Nc2ccccc2/C=C/c2n[nH]c3ccccc23)c(Cl)c1` [Compound 84, (E)-4-amino-2-chloro-N-{2-[2-(1H-indazol-3-yl)vinyl]phenyl}benzamide]: the inhibition at 10 µM in test [1] came out at 113%; in test [2], 107%; in test [3], 100%.

In the case of `CC(=O)N1CCN(C(=O)c2ccc(/C=C/c3n[nH]c4ccccc34)c(NC(=O)Cc3cccs3)c2)CC1` [Compound 89, (E)-N-{5-(4-acetylpiperazin-1-ylcarbonyl)-2-[2-(1H-indazol-3-yl)vinyl]phenyl}-2-(thiophen-2-yl)acetamide], the inhibition at 10 µM was 114% in test [1], 138% in test [2] and 98.4% in test [3].

On to `CC(=O)N1CCN(C(=O)c2ccc(/C=C/c3n[nH]c4ccccc34)c(NC(=O)c3cc4ccccc4s3)c2)CC1` [Compound 90, (E)-N-{5-(4-acetylpiperazin-1-ylcarbonyl)-2-[2-(1H-indazol-3-yl)vinyl]phenyl}benzo[b]thiophene-2-carboxamide], for which the results for the inhibition at 10 µM in test [1], in test [2] and in test [3] were 114%, 136% and 97%, respectively.

Take `CC(=O)N1CCN(C(=O)c2ccc(/C=C/c3n[nH]c4ccccc34)c(NC(=O)c3cccn3C)c2)CC1` [Compound 91, (E)-N-{5-(4-acetylpiperazin-1-ylcarbonyl)-2-[2-(1H-indazol-3-yl)vinyl]phenyl}-1-methyl-1H-pyrrole-2-carboxamide]: the inhibition at 10 µM came to 115% in test [1], 144% in test [2] and 98.7% in test [3].
